Data published in ChEMBL document CHEMBL4118290, “Synthesis of 1,5-Anhydro-d-fructose derivatives and evaluation of their inflammasome inhibitors” (Bioorg Med Chem, 2018).
Values belong to the compound of their own block, whether it stands above or below them. Calls of active or inactive are those of the source. No cut-off for these calls is given here.

Columns and labels:
[1] = molecular target: NACHT, LRR and PYD domains-containing protein 3 (Mus musculus) (UniProt Q8R4B8); assay: (§1) Inhibition of nigericin-induced NLRP3 inflammasome activation in C57BL/6 mouse bone marrow derived macrophages assessed as reduction in LPS-stimulated IL-1beta secretion incubated for 1 hr followed by nigericin addition measured after 1 hr by ELISA
NACHT, LRR and PYD domains-containing protein 3 (Mus musculus), sequence (Q8R4B8 whole entry, the tested form may be a part): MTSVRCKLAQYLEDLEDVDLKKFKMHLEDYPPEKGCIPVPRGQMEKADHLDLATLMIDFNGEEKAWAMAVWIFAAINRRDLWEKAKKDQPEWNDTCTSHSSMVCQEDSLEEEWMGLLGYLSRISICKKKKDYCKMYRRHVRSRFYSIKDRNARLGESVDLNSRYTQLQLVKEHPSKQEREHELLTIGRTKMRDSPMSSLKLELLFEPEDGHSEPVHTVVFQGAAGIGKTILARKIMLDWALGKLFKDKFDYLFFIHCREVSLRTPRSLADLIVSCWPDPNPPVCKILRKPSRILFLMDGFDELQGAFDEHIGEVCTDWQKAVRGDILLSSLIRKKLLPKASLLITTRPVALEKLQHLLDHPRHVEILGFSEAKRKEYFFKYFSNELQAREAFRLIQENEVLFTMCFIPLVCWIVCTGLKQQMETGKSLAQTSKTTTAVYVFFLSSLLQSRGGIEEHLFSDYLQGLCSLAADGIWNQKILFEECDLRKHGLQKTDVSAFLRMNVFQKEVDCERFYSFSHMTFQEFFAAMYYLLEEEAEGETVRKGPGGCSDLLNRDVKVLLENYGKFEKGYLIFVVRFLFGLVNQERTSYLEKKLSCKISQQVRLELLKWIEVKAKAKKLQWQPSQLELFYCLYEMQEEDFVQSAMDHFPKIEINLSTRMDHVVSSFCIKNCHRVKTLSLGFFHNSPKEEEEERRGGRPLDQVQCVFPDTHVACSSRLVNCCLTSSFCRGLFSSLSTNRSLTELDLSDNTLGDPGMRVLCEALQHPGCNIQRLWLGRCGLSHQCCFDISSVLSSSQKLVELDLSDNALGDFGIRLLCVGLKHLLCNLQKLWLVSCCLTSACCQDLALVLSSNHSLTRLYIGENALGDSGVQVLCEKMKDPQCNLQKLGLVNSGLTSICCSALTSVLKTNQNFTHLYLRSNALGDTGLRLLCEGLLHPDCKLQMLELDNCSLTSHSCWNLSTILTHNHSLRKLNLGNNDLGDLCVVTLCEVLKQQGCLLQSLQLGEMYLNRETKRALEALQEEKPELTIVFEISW

[2] = molecular target: NACHT, LRR and PYD domains-containing protein 3 (Mus musculus, UniProt Q8R4B8); assay: as §1
NACHT, LRR and PYD domains-containing protein 3 (Mus musculus, UniProt Q8R4B8), sequence (Q8R4B8 whole entry, the tested form may be a part): as above

[3] = molecular target: NACHT, LRR and PYD domains-containing protein 3 (Mus musculus) (UniProt Q8R4B8); assay: Inhibition of nigericin-induced NLRP3-dependent pyroptosis in C57BL/6 mouse bone marrow derived macrophages assessed as restoration of LPS-stimulated decrease in intracellular ATP level incubated for 1 hr followed by nigericin addition measured after 1 hr by cell titer-glo reagent based luminescence assay
[4] = molecular target: NACHT, LRR and PYD domains-containing protein 3 (Mus musculus) (UniProt Q8R4B8); assay: as §1, with “LPS-stimulated processing of pro-IL-1beta to mature” for “LPS-stimulated”, “in supernatant at 100 uM” for “secretion”, “Western blot analysis” for “ELISA”
[5] = molecular target: NACHT, LRR and PYD domains-containing protein 3 (Mus musculus) (UniProt Q8R4B8); assay: as §1, with “LPS-stimulated processing of pro-IL-1beta to mature” for “LPS-stimulated”, “in cell lysate at 100 uM” for “secretion”, “Western blot analysis” for “ELISA”
[6] = molecular target: T1, NACHT, LRR and PYD domains-containing protein 3 (Homo sapiens, UniProt Q96P20); assay: Inhibition of nigericin-induced NLRP3 inflammasome activation in PMA-differentiated human THP1 cells assessed as reduction in LPS-stimulated IL-1beta secretion incubated for 1 hr prior to stimulation with nigericin for 1 hr by quanti-blue based SEAP reporter gene assay
T1 sequence (Q96P20 whole entry, the tested form may be a part): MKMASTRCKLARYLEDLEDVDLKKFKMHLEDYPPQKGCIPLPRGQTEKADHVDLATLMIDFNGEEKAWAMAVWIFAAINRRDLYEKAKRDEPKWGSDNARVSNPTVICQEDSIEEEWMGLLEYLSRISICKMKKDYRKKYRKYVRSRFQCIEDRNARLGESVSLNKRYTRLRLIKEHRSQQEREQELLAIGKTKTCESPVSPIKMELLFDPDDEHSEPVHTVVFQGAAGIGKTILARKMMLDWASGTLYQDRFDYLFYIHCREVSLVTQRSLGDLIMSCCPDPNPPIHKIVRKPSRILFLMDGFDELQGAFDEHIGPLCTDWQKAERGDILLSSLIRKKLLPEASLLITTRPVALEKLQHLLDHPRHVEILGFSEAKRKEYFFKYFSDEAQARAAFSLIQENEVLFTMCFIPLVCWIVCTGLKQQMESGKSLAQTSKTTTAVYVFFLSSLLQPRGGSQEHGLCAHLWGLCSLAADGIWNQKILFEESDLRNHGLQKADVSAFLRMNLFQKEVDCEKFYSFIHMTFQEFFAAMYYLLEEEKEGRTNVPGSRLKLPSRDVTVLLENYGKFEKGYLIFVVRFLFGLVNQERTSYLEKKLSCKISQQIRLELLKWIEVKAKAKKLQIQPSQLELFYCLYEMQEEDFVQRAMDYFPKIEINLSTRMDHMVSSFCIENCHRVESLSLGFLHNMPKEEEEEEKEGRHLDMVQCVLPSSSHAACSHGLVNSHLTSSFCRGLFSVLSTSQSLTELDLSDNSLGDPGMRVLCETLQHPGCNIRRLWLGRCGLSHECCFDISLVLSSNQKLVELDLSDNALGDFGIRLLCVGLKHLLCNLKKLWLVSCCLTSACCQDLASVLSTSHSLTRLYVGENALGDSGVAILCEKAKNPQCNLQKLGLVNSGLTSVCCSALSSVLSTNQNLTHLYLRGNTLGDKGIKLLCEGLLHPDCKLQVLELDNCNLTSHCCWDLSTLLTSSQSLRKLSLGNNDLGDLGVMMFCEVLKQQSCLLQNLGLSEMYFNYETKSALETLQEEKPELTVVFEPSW

[7] = molecular target: T1, NACHT, LRR and PYD domains-containing protein 3; assay: Inhibition of nigericin-induced NLRP3 inflammasome activation in PMA-differentiated human THP1 cells assessed as reduction in LPS-stimulated IL-1beta secretion at 60 mM incubated for 1 hr prior to stimulation with nigericin for 1 hr by ELISA
[8] = molecular target: NACHT, LRR and PYD domains-containing protein 3 (Mus musculus) (UniProt Q8R4B8); assay: as §1, with “LPS-stimulated processing of pro-IL-1beta to mature” for “LPS-stimulated”, “in supernatant at 6.8 mM” for “secretion”, “Western blot analysis” for “ELISA”
[9] = molecular target: NACHT, LRR and PYD domains-containing protein 3 (Mus musculus) (UniProt Q8R4B8); assay: as §1, with “LPS-stimulated processing of pro-IL-1beta to mature” for “LPS-stimulated”, “in cell lysate at 6.8 mM” for “secretion”, “Western blot analysis” for “ELISA”
[10] = molecular target: T1, NACHT, LRR and PYD domains-containing protein 3; assay: (§2) Inhibition of nigericin-induced NLRP3 inflammasome activation in PMA-differentiated human THP1 cells assessed as reduction in LPS-stimulated processing of pro-IL-1beta to mature IL-1beta in supernatant at 3.4 mM incubated for 1 hr followed by nigericin addition measured after 1 hr by Western blot analysis
[11] = molecular target: T1, NACHT, LRR and PYD domains-containing protein 3; assay: as §2, with “cell lysate” for “supernatant”

IC50 [2]: 3.2 µM
inhibition [3]: Dose-dependent effect
IC50 [6]: 3.7 µM
SMILES: CC(=O)OC[C@@H]1C=C(F)C(=O)CO1

IC50 [2]: 3.6 µM
inhibition [3]: Dose-dependent effect
IC50 [6]: 3.6 µM
SMILES: CCCC(=O)OC[C@@H]1C=CC(=O)CO1

IC50 [2]: 1.2 µM
IC50 [6]: 6.6 µM
SMILES: O=C1C=C[C@H]2CO[C@@H]1O2

IC50 [2]: 0.8 µM
inhibition [3]: Dose-dependent effect
IC50 [6]: 4.8 µM
SMILES: O=C1C(F)=C[C@@H]2CO[C@H]1O2 (single isomer, unassigned)

IC50 [2]: 8.4 µM
inhibition [3]: Dose-dependent effect
IC50 [6]: 5.1 µM
SMILES: CCCCCCCC(=O)OC[C@@H]1C=CC(=O)CO1

The remaining lines, values behind:

SMILES: O=C1C=C[C@@H](CO)OC1
inhibition [1]: Dose-dependent effect
IC50 [2]: 16 µM
inhibition [3]: Dose-dependent effect
inhibition [4]: Active
inhibition [5]: Active

SMILES: O=C1CO[C@H](CO)[C@@H](O)[C@@H]1O
inhibition [1]: Dose-dependent effect
IC50 [2]: 29000 µM
inhibition [7]: inactive

SMILES: CC(=O)OC1=C(F)C(OC(C)=O)[C@@H]2CO[C@H]1O2 (stereo partly specified)
IC50 [2]: 1 µM
inhibition [3]: Dose-dependent effect
IC50 [6]: 3.7 µM

SMILES: O=C1CO[C@H](CO)[C@@H](O)C1
inhibition [1]: Dose-dependent effect
IC50 [2]: 1600 µM
inhibition [3]: Dose-dependent effect
IC50 [6]: 2300 µM
inhibition [8]: Active
inhibition [9]: Active
inhibition [10]: Active
inhibition [11]: Active

SMILES: CC(=O)OC[C@@H]1C=CC(=O)CO1
IC50 [2]: 5.7 µM
inhibition [3]: Dose-dependent effect
IC50 [6]: 4.3 µM
